Results reported in patent publication US20150290227A1, “USE OF HAMAMELITANNIN FOR THE TREATMENT OF STAPHYLOCOCCAL INFECTIONS” (priority 2006, published 2015).
“And” between values parts separate entries of the source, which are not always exact repeats. Identical values can stand only once.

Experiments:
[1] = test system: RNAIII; test: RNAIII production in S. aureus cells containing rnaiii::blaZ fusion construct, measured as β-lactamase activity; format: cell-based; details: for inhibition of RNAIII synthesis (in words): 0-50 μg
Method: RNAIII levels were determined as β-lactamase activity (reporter gene product) and denoted as Vmax.
To test if hamamelitannin is a quorum sensing inhibitor and thus suppresses RNAIII synthesis, 2×10^7 cells were incubated with increasing amounts (0-50 μg) of hamamelitannin (or RIP). RNAIII levels were measured as β-lactamase activity as a reporter gene product by the addition of nitrocefin as substrate. […] Hamamelitannin (2′,5-di-O-galloyl hamamelose) was purchased from Chromadex, Inc. (93% purity, as assessed by HPLC by the manufacturer). Hamamelitannin was dissolved in water at 25 mg/ml and stored at −70° C. until use.

[2] = test system: S. aureus cells; test: S. aureus cell attachment in vitro in polystyrene plates; format: cell-based; details: for reduction of cell attachment (in words): 0-50 μg, 3 hrs at 37° C., OD 595 nm; for amount most effective in reducing cell attachment: converted dose
Method: Attached cells were stained and OD595nm was determined.
To test for the effect of hamamelitannin on bacterial attachment in vitro, S. aureus cells were incubated with 0-50 μg hamamelitannin or RIP in polystyrene plates for 3 hrs at 37° C. Adherent bacteria were stained with methylene blue and OD determined at 595 nm.

[3] = test system: MRSE; test: Rat graft-associated infection, bacteria pre-incubated with agent, MRSE challenge; format: in vivo, S. epidermidis; details: for amount that could prevent an infection: infection caused by 2×10^7 CFU MRSE, rat graft
Method: (§1) FIG. 6 is a graph presentation of the effectiveness of bacterial graft-associated infection inhibition by hamamelitannin and RIP against challenge by methicillin resistant S. aureus and S. epidermidis (MRSA and MRSE) using pre-incubation.
(§2) To measure the amount of hamamelitannin necessary to prevent device-associated infections, bacteria (2×10^7 MRSA or MRSE) were pre-incubated with increasing amounts of hamamelitannin for 30 min at room temperature. Grafts were implanted and rats were challenged with the pre-incubated bacteria. Seven days later the graft was removed and bacterial load determined. […] No bacteria was found when either MRSA or MRSE were pre-incubated with >20 μg hamamelitannin.
(§3) In the testing reflected in FIG. 6 and summarized above, to ascertain the amount of hamamelitannin/bacteria necessary to potentially prevent device-associated infections, bacteria (2×10^7 MRSE or MRSA in 150 μl saline) were pre-incubated with hamamelitannin (0, 0.5, 10, 20, 30, 50 μg) for 30 min at room temperature, as noted. Grafts were implanted and rats were challenged with the pre-incubated bacteria. Seven days later the graft was removed and bacterial load determined. […] When the bacteria was treated with 0.5, 10, 20, 30 or 50 μg hamamelitannin, MRSE load was 8.4×10^3±2.2×10^3 for 0.5 μg and 8.7×10^1±6.6×10^1 for 10 μg.

[4] = test system: MRSA; test: Rat graft-associated infection, bacteria pre-incubated with agent, MRSA challenge; format: in vivo, S. aureus; details: for amount that could prevent an infection: infection caused by 2×10^7 CFU MRSA, rat graft
Method: as §1, §2, §3

[5] = test system: MRSE; test: Rat graft-associated infection, local treatment (graft soak), MRSE challenge; format: in vivo, S. epidermidis; details: for bacterial load on graft: day 7
Method: (§4) FIG. 7 is a graph presentation of the effectiveness of bacterial graft-associated infection inhibition by hamamelitannin against challenge by MRSA and MRSE using local treatment (graft soak).
(§5) To test if hamamelitannin could inhibit graft-associated infection, grafts (1 cm^2 collagen coated Dacron) were soaked for 1 h in increasing hamamelitannin concentrations. The graft was then implanted into the animal, and bacteria injected onto the graft. Seven days later the graft was removed and bacteria on the graft counted.

[6] = test system: MRSA; test: Rat graft-associated infection, local treatment (graft soak), MRSA challenge; format: in vivo, S. aureus
Method: as §4, §5

[7] = test system: S. aureus strain; test: Bacterial growth in vitro / MIC; format: cell-based
[8] = test system: tumor necrosis factor α-mediated endothelial cell death; details: cited from earlier work
[9] = test system: cell damage induced by peroxides or UVB radiation; details: cited from earlier work

In the case of `O=C(OC[C@H]1OC(O)[C@@](O)(COC(=O)c2cc(O)c(O)c(O)c2)[C@@H]1O)c1cc(O)c(O)c(O)c1` (stereo partly drawn) [hamamelitannin, 2′,5-di-O-galloyl hamamelose], the “minimal dose inhibiting RNAIII production” value [1] is reported as 0.2 picomoles per 1000 bacteria, the “inhibition of RNAIII synthesis (in words)” value ([1]; 2×10^7 cells, 2.5 hrs) is reported as “inhibits RNAIII synthesis in a dose dependent manner” and the “dose most effective in inhibiting RNAIII synthesis” value ([1]; 2×10^7 cells, 2.5 hrs) is reported as greater than 2 μg/2×10^7 bacteria. The “reduction of cell attachment (in words)” value [2] was “reduced cell attachment in a dose-dependent manner”, the “amount most effective in reducing cell attachment” value [2] was 0.4 picomoles/10^3 bacteria and the “amount that could prevent an infection” value [3] was 10 µg. For the same compound, the “amount at which no bacteria was found on graft” value ([3]; rat, 2×10^7 MRSE pre-incubated 30 min, graft removed after seven days) was greater than 20 µg, the “MRSE load on graft” value ([3]; rat, 2×10^7 MRSE pre-incubated with 0.5 μg, day 7) was 8.4×10^3±2.2×10^3 CFU/ml and the “MRSE load on graft” value ([3]; rat, 2×10^7 MRSE pre-incubated with 10 μg, day 7) was 8.7×10^1±6.6×10^1 CFU/ml. The “MRSE graft infection (in words)” value ([3]; rat, 2×10^7 MRSE pre-incubated with 20, 30 or 50 μg, day 7) was “No sign of infection”, the “amount that could prevent an infection” value [4] was 10 µg and the “amount at which no bacteria was found on graft” value ([4]; rat, 2×10^7 MRSA pre-incubated 30 min, graft removed after seven days) was greater than 20 µg. The “MRSA load on graft” value ([4]; rat, 2×10^7 MRSA pre-incubated with 0.5 μg, day 7) was 8.8×10^3±2.3×10^3 CFU/mL, the “MRSA load on graft” value ([4]; rat, 2×10^7 MRSA pre-incubated with 10 μg, day 7) was 3.6×10^2±0.8×10^2 CFU/mL and the “MRSA graft infection (in words)” value ([4]; rat, 2×10^7 MRSA pre-incubated with 20, 30 or 50 μg, day 7) was “No sign of infection”. The “bacterial load on graft” value ([5]; MRSE, graft pre-soaked with 0.5 mg/L) was 9.0×10^4±2.6×10^4 CFU/mL, the “bacterial load on graft” value ([5]; MRSE, graft soaked with 10 mg/L) was 2.1×10^3±0.2×10^3 CFU/mL and the “bacterial load on graft” value ([5]; MRSE, graft soaked with 30 or 50 mg/L) was less than 10 CFU/mL. The “pre-soak concentration at which grafts show no signs of infection” value ([5]; challenge 2×10^7, MRSE) was “at least 30 mg/L and ~60 uM”, the “decrease in bacterial load versus untreated control (in words)” value ([5]; grafts presoaked 1 h, 0-50 mg/L, MRSE) was “Significant (p<0.05) decrease in bacterial load” and the “bacterial load on graft (in words)” value ([6]; MRSA, graft pre-soaked in 30 or 50 mg/L, day 7) was “no bacterial load was detected”. For the same compound, the “bacterial load on graft” value ([6]; MRSA, graft soaked with 0.5 mg/L, day 7) was 9.3×10^4±2.8×10^4 CFU/mL, the “bacterial load on graft” value ([6]; MRSA, graft soaked with 10 mg/L, day 7) was 2.6×10^3±0.3×10^3 CFU/mL and the “bacterial load on graft” value ([6]; MRSA, graft soaked with 20 mg/L, day 7) was 3.7×10^1±1.1×10^1 CFU/mL. For the same compound, the “pre-soak concentration at which grafts show no signs of infection” value ([6]; challenge 2×10^7, MRSA) was “at least 30 mg/L and ~60 uM”, the “decrease in bacterial load versus untreated control (in words)” value ([6]; grafts presoaked 1 h, 0-50 mg/L, MRSA) was “Significant (p<0.05) decrease in bacterial load” and the “concentration affecting bacterial growth in vitro (no effect even at concentrations as high as)” value ([7]; S. aureus) was greater than 2.5 mM per 1000 bacteria. The “highest concentration without effect on growth relative to the MIC of ampicillin” value ([7]; same S. aureus strain) was 13,000 times, the “concentration inhibiting tumor necrosis factor α-mediated endothelial cell death” value [8] was “less than 100 uM” and the “minimum concentration with high protective activity against cell damage” value [9] was 50 µM.

In the case of “RIP: RNAIII-inhibiting peptide, sequence YSPWTNF, antagonist of RAP [reference compound]”, the “minimal dose inhibiting RNAIII production” value [1] is reported as 0.5 picomoles per 1000 bacteria, the “inhibition of RNAIII synthesis (in words)” value ([1]; 2×10^7 cells, 2.5 hrs) is reported as “inhibited RNAIII production in a dose dependent manner” and the “dose most effective in inhibiting RNAIII synthesis” value ([1]; 2×10^7 cells, 2.5 hrs) is reported as 8 μg/2×10^7 bacteria. For the same compound, the “dose most effective in inhibiting RNAIII synthesis” value ([1]; converted dose) was 0.5 picomoles/10^3 bacteria, the “reduction of cell attachment (in words)” value [2] was “reduced cell attachment in a dose-dependent manner” and the “amount most effective in reducing cell attachment” value [2] was 0.4 picomoles/10^3 bacteria. For the same compound, the “amount that could prevent an infection” value [3] was 10 µg and the “amount that could prevent an infection” value [4] was 10 µg.

In the case of `CC1(C)S[C@@H]2[C@H](NC(=O)[C@H](N)c3ccccc3)C(=O)N2[C@H]1C(=O)O` [ampicillin, reference compound], the “MIC of ampicillin (reference drug)” value ([7]; same S. aureus strain) is reported as 0.2 uM per 1000 bacteria.
